Measured values taken from PubChem BioAssay (NCI).
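A five-concentration, 48-hour dose response in 96-well plates underlies each endpoint, interpolated linearly between surrounding concentrations. TGI marks complete inhibition of growth.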

Test system: HOP-18 NSCLC
Experiment: NCI anticancer screen, dose series, 48 h

Compound	TGI
Cc1cc(=O)[nH]c(NNC(C#N)c2cccc(O)c2)n1 (stereo not given)	> 100 µM
CCOC(=O)c1ncn2c1[nH]c(=S)c1ccccc12	> 100 µM
COc1cc2c(c(OC)c1O)-c1ccc(SC)c(=O)cc1C(NC(C)=O)CC2 (stereo not given)	> 100 µM

Test system: M19-MEL melanoma
Experiment: NCI anticancer screen, dose series, 48 h

Compound	TGI
Cc1cc(=O)[nH]c(NNC(C#N)c2cccc(O)c2)n1 (stereo not given)	> 100 µM
Cc1c2n(c(=O)[nH]c1=O)C1OC(CO)C(O2)C1N=[N+]=[N-] (stereo not given)	> 100 µM
CCOC(=O)c1ncn2c1[nH]c(=S)c1ccccc12	> 100 µM
COc1ccc(-c2cc(=O)c3ccc(O)cc3o2)c(OC)c1OC	> 100 µM
CC(=O)NC1=C(NCC(C)(C)C)C(=O)c2ccccc2C1=O	39.8 µM
COc1cc2c(c(OC)c1O)-c1ccc(SC)c(=O)cc1C(NC(C)=O)CC2 (stereo not given)	> 100 µM
O=C(CSC(=S)N1CCCCC1)Nc1nc2c(s1)CCCC2	> 100 µM

Test system: DLD-1 colon
Experiment: NCI anticancer screen, dose series, 48 h

Compound	TGI
Cc1cc(=O)[nH]c(NNC(C#N)c2cccc(O)c2)n1 (stereo not given)	> 100 µM
Cc1c2n(c(=O)[nH]c1=O)C1OC(CO)C(O2)C1N=[N+]=[N-] (stereo not given)	> 100 µM
CCOC(=O)c1ncn2c1[nH]c(=S)c1ccccc12	> 100 µM
COc1ccc(-c2cc(=O)c3ccc(O)cc3o2)c(OC)c1OC	> 100 µM
CC(=O)NC1=C(NCC(C)(C)C)C(=O)c2ccccc2C1=O	> 100 µM
COc1cc2c(c(OC)c1O)-c1ccc(SC)c(=O)cc1C(NC(C)=O)CC2 (stereo not given)	> 100 µM
O=C(CSC(=S)N1CCCCC1)Nc1nc2c(s1)CCCC2	> 100 µM

Test system: KM20L2 colon
Experiment: NCI anticancer screen, dose series, 48 h

Compound	TGI
Cc1cc(=O)[nH]c(NNC(C#N)c2cccc(O)c2)n1 (stereo not given)	> 100 µM
Cc1c2n(c(=O)[nH]c1=O)C1OC(CO)C(O2)C1N=[N+]=[N-] (stereo not given)	> 100 µM
CCOC(=O)c1ncn2c1[nH]c(=S)c1ccccc12	> 100 µM
COc1ccc(-c2cc(=O)c3ccc(O)cc3o2)c(OC)c1OC	> 100 µM
CC(=O)NC1=C(NCC(C)(C)C)C(=O)c2ccccc2C1=O	> 100 µM
COc1cc2c(c(OC)c1O)-c1ccc(SC)c(=O)cc1C(NC(C)=O)CC2 (stereo not given)	0.0246 µM
O=C(CSC(=S)N1CCCCC1)Nc1nc2c(s1)CCCC2	> 100 µM

Test system: SNB-78 CNS
Experiment: NCI anticancer screen, dose series, 48 h

Compound	TGI
Cc1cc(=O)[nH]c(NNC(C#N)c2cccc(O)c2)n1 (stereo not given)	> 100 µM
Cc1c2n(c(=O)[nH]c1=O)C1OC(CO)C(O2)C1N=[N+]=[N-] (stereo not given)	> 100 µM
CC(=O)NC1=C(NCC(C)(C)C)C(=O)c2ccccc2C1=O	> 100 µM
COc1cc2c(c(OC)c1O)-c1ccc(SC)c(=O)cc1C(NC(C)=O)CC2 (stereo not given)	> 100 µM
O=C(CSC(=S)N1CCCCC1)Nc1nc2c(s1)CCCC2	> 100 µM

Test system: RXF-631 renal
Experiment: NCI anticancer screen, dose series, 48 h

Compound	TGI
CCOC(=O)c1ncn2c1[nH]c(=S)c1ccccc12	> 100 µM

Test system: DMS 273 small cell lung
Experiment: NCI anticancer screen, dose series, 48 h

Compound	TGI
Cc1cc(=O)[nH]c(NNC(C#N)c2cccc(O)c2)n1 (stereo not given)	> 100 µM
Cc1c2n(c(=O)[nH]c1=O)C1OC(CO)C(O2)C1N=[N+]=[N-] (stereo not given)	> 100 µM
CCOC(=O)c1ncn2c1[nH]c(=S)c1ccccc12	> 100 µM
CC(=O)NC1=C(NCC(C)(C)C)C(=O)c2ccccc2C1=O	> 100 µM
COc1cc2c(c(OC)c1O)-c1ccc(SC)c(=O)cc1C(NC(C)=O)CC2 (stereo not given)	> 100 µM
O=C(CSC(=S)N1CCCCC1)Nc1nc2c(s1)CCCC2	> 100 µM

Test system: XF 498 CNS
Experiment: NCI anticancer screen, dose series, 48 h

Compound	TGI
COc1ccc(-c2cc(=O)c3ccc(O)cc3o2)c(OC)c1OC	> 100 µM
CC(=O)NC1=C(NCC(C)(C)C)C(=O)c2ccccc2C1=O	65.5 µM
O=C(CSC(=S)N1CCCCC1)Nc1nc2c(s1)CCCC2	71.3 µM

Test system: DMS 114 small cell lung
Experiment: NCI anticancer screen, dose series, 48 h

Compound	TGI
Cc1cc(=O)[nH]c(NNC(C#N)c2cccc(O)c2)n1 (stereo not given)	> 100 µM
Cc1c2n(c(=O)[nH]c1=O)C1OC(CO)C(O2)C1N=[N+]=[N-] (stereo not given)	> 100 µM
CCOC(=O)c1ncn2c1[nH]c(=S)c1ccccc12	> 100 µM
COc1ccc(-c2cc(=O)c3ccc(O)cc3o2)c(OC)c1OC	> 100 µM
COc1cc2c(c(OC)c1O)-c1ccc(SC)c(=O)cc1C(NC(C)=O)CC2 (stereo not given)	< 0.0143 µM
O=C(CSC(=S)N1CCCCC1)Nc1nc2c(s1)CCCC2	> 100 µM
